Results on two compounds are retold here after patent US20240174649A1, “CULLIN-RING E3 UBIQUITIN LIGASE 4 INHIBITOR COMPOUNDS AND METHODS OF THEIR USE” (ICAHN SCHOOL OF MEDICINE AT MOUNT SINAI, priority 2021, published 2024).

For one data set, the target named is Nedd8-ROC1-CUL1 (Homo sapiens (Human), UniProt Q13616). In words: Ub chain assembly measured by Coomassie stain. The data set is classed as biochemical. The protocol: (§1) Reaction mixture contained 2 mM ATP, 10 mM MgCl2, 0.01 μg/μl of GST-E1 (Ub), 0.01 μg/μl of Cdc34, 0.1 μg/μl of Nedd8-ROC1-CUL1 or Nedd8-ROC1-CUL4A, and 1 μg/μl of Ub. Where indicated, DMSO and compound were added. The reaction was incubated at 37° C. for 60 min. Following separation of reaction products by SDS-PAGE, proteins were visualized by Coomassie stain.

Another data set has as its target Nedd8-ROC1-CUL4A (Homo sapiens (Human), UniProt Q13619). In words: Ub chain assembly measured by Coomassie stain. The conditions noted are these: 10 μM. The class given is biochemical. The protocol:
as §1

For another data set, the system named is U2OS. Description: Apoptosis, Annexin V flow cytometry. The class given is cell-based. As to conditions: Homo sapiens, Bone. An outline of the steps: (§2)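 5×10^4 cells were seeded 24 h before treatment, then cultured with compound for 48 h. Pelleted cells were washed in Annexin V binding buffer (HEPES pH 7.4, with CaCl2) and stained in the dark with Annexin V-FITC (2 μg/ml) for 5 min. Apoptosis was read by flow cytometry.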
Background: A flow cytometer gives signals particle by particle.

The test system of another data set is THP-1. Description: Apoptosis, Annexin V flow cytometry. The conditions noted are these: Homo sapiens, THP-1, THP-1, AML. The class given is cell-based. An outline of the steps:
as §2

The test system of another data set is MV4-11. In words: Apoptosis, Annexin V flow cytometry. As to conditions: Homo sapiens; MV4-11, AML. The class given is cell-based. In short, it runs like this: as §2
Another data set deals with H1299. Description: Apoptosis, Annexin V flow cytometry. The conditions noted are these: Homo sapiens, NCI-H1299; H1299, Lung. The class given is cell-based. An outline of the steps: as §2
In a further data set the test system is MDA-MB-231. In words: Apoptosis, Annexin V flow cytometry. The conditions noted are these: Homo sapiens; MDA-MB-231, Breast. The data set is classed as cell-based. In short, it runs like this:
as §2

The next data set deals with HCT116. Description: Apoptosis, Annexin V flow cytometry. The data set is classed as cell-based. The conditions noted are these: Homo sapiens, HCT-116; HCT116, Colon. An outline of the steps:
as §2

The test system of another data set is NB-4. In words: Apoptosis, Annexin V flow cytometry. The data set is classed as cell-based. The conditions noted are these: Homo sapiens; NB-4, AML. An outline of the steps: as §2
The next data set relates to ML-2. In words: Apoptosis, Annexin V flow cytometry. The data set is classed as cell-based. As to conditions: Homo sapiens; ML-2, AML. An outline of the steps: as §2
The test system of another data set is K562. In words: Apoptosis, Annexin V flow cytometry. The data set is classed as cell-based. The conditions noted are these: Homo sapiens; K562, CML. An outline of the steps: as §2
The test system of another data set is MOLT-4. In words: Apoptosis, Annexin V flow cytometry. The data set is classed as cell-based. The conditions noted are these: Homo sapiens; MOLT-4, ALL. An outline of the steps: as §2
A short description of another data set: Plasma stability. The data set is classed as in vitro ADME. The conditions noted are these: Human. The protocol: (§3) ADME studies on compounds #33-11 and KH-4-43 for “absorption, distribution, metabolism, and excretion” were carried out at CRO, BioDuro. Kinetic solubility, plasma and microsome stability in rat, mouse and human, as well as Caco-2 Permeability were examined.

The target in the next data set is E3 (CUL1) (Homo sapiens (Human), UniProt Q13616). In words: E3 (CUL1) inhibition (Table 1). The class given is biochemical. The protocol:
The reaction mixture (15 μl) was assembled onto a 384-well microtiter plate. […] ATP (0.66 mM) was then added to the mix followed by a brief centrifugation to settle down the mixture. The resulting plate was incubated at 30° C. in the Synergy-H1 reader and the fluorescence signal was monitored. Ubiquitination was quantified based on the ratio of acceptor:donor fluorescence (excitation 515 nm; donor emission 570 nm, acceptor emission 670 nm).

A short description of data set [1]: In vitro stability in mouse, rat and human microsomes. The data set is classed as in vitro ADME. The method, then:
as §3

The term EC50 denotes the concentration at which the effect is half-maximal. For orientation: half-life means the time needed for the level to fall by half in the phase considered.

Sequence of Nedd8-ROC1-CUL1 (Q13616 whole entry): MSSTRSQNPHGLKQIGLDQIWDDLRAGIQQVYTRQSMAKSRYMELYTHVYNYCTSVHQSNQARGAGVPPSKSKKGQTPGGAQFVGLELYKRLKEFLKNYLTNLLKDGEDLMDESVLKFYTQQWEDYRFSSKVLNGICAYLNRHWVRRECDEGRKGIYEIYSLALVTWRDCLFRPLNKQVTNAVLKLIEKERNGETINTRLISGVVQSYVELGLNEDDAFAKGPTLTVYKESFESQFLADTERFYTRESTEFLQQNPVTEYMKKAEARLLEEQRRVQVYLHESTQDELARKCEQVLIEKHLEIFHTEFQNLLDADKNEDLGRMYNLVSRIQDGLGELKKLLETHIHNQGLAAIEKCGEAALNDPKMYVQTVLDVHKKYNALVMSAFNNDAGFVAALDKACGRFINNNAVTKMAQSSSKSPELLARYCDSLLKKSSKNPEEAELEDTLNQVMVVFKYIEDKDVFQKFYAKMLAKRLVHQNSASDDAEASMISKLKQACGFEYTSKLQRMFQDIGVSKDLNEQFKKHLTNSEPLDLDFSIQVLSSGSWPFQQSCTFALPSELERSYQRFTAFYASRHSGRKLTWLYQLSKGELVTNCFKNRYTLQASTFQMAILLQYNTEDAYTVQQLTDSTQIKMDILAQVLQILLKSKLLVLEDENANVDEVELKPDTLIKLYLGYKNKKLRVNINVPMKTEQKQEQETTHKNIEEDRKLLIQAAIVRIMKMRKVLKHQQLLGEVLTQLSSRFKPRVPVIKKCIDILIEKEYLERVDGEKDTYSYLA
Sequence of Nedd8-ROC1-CUL1 (P62877 whole entry partner): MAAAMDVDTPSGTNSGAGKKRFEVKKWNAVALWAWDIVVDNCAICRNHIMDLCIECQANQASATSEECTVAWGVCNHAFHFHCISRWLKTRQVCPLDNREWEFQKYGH
Sequence of Nedd8-ROC1-CUL1 (Q15843 1-76 partner): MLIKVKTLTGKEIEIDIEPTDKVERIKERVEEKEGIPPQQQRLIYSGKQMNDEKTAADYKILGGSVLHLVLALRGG
Sequence of E3 (CUL1) (Q13616 whole entry): as the sequence (Q13616 whole entry) above
Sequence of E3 (CUL1) (P62877 whole entry partner): as the sequence (P62877 whole entry partner) above
Sequence of Nedd8-ROC1-CUL4A (Q13619 39-759 limits assumed): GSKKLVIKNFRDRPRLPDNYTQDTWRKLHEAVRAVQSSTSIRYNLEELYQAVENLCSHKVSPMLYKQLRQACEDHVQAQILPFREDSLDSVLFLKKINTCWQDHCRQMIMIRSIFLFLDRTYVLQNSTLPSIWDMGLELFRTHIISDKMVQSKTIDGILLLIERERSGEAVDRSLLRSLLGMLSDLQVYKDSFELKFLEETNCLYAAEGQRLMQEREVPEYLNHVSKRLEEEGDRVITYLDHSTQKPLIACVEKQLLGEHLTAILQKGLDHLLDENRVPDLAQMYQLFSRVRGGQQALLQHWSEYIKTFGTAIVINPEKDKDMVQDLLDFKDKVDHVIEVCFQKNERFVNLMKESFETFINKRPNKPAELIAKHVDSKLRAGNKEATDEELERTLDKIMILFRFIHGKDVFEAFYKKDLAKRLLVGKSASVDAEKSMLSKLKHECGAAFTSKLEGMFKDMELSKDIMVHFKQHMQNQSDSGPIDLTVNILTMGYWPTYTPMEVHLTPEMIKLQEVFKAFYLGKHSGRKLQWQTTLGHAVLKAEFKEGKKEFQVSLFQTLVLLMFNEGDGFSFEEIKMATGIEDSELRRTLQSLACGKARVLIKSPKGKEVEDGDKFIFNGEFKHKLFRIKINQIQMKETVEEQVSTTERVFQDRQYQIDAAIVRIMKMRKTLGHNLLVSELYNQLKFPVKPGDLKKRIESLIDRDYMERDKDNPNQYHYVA
Sequence of Nedd8-ROC1-CUL4A (P62877 15-108 partner limits assumed): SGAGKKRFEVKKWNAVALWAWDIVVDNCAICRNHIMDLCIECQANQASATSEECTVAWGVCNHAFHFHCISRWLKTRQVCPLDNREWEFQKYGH
Sequence of Nedd8-ROC1-CUL4A (Q15843 1-76 partner limits assumed): as the sequence (Q15843 1-76 partner) above

On to `O=c1c(-c2cnn(-c3ccccc3)c2)c(C(F)(F)F)oc2c(O)c(O)ccc12` [#33-11, 7,8-dihydroxy-3-(1-phenyl-1H-pyrazol-4-yl)-2-(trifluoromethyl)-4H-chromen-4-one], for which the “effect on Ub chain assembly” value on Nedd8-ROC1-CUL1 (1 mM) is reported as “blocked the utilization of Ub”; on Nedd8-ROC1-CUL1 (10 or 100 μM) it was “little effect”; on Nedd8-ROC1-CUL4A, “block the utilization of free Ub”. Further, the EC50 in the data set on U2OS is ~78 µM; in the data set with THP-1, 14 µM; in the data set with MV4-11, ~13 µM; in the data set on H1299, ~81 µM; with MDA-MB-231 it was > 100 µM; with HCT116, ~58 µM. Besides, the EC50 in the data set on NB-4 was ~7 µM; in the data set on ML-2 it was ~14 µM; in the data set on K562, ~54 µM; in the data set with MOLT-4, ~5 µM. For the same compound, the “Plasma Stability: t1/2” value in the data set “Plasma stability” is >8.33 h.
Regarding `O=c1c(-c2cnn(-c3ccc(Cl)cc3)c2)c(C(F)(F)F)oc2c(O)c(O)ccc12` [KH-4-43, 3-(1-(4-chlorophenyl)-1H-pyrazol-4-yl)-7,8-dihydroxy-2-(trifluoromethyl)-4H-chromen-4-one], the 50% effective concentration (EC50) on E3 (CUL1) is 7 µM. The half-life in [1] was > 5 h.
